Assay [1] concerns the target T1, phenylethanol dehydrogenase (Lentilactobacillus kefiri, UniProt Q6WVP7).
T1 sequence (Q6WVP7 2-252 limits assumed): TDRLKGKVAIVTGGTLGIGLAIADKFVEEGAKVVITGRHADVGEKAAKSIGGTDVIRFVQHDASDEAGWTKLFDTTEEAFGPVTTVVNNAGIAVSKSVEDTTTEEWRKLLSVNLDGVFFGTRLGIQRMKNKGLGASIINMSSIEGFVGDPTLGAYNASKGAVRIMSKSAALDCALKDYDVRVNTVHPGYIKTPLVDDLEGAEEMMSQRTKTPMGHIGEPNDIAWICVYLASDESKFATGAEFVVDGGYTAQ
Nature of the assay: Effect of metal cations, inhibitors and SH-protecting reagents on enzyme activity. It is filed as biochemical, Lactobacillus kefir. As for the experimental part:
Partially purified enzyme (after Mono-Q chromatography, concentrated 20-fold) was employed for the following tests.
(i) METAL CATIONS: The effect of Mg^2+, […] and Mn^2+ ions was investigated using the assay mixture detailed below. […]
(ii) INHIBITORS AND SH-[…]: An assay mixture according to Example 2 C(i) without added metal cations but with addition of various inhibitors or SH-[…] at a final concentration of 1 mM was used to determine the effect of certain enzyme inhibitors and SH-[…] on enzyme activity. […] Phenylmethanesulfonyl fluoride was dissolved in acetonitrile to a final concentration of acetonitrile of […]. Acetonitrile alone had no effect on the enzyme activity in control tests.

In assay [2] the target is T1, phenylethanol dehydrogenase. Nature of the assay: NADPH-dependent reduction: substrate spectrum and dependence of reaction rate on acetophenone/NADPH concentration.
Assay [3] has the same target. Nature of the assay: NADP+-dependent oxidation / reverse reaction with R(+)- or S(-)-phenylethanol. As to conditions: for Vmax: NADP+-dependent oxidations; for Enzyme activity (oxidation): 11 mM alcohol, pH 8.0, NADP+, 340 nm, 30° C.; for Stereospecificity / effect on the enzyme (in words): comparison of mixtures I, II and III.
Protocol: The optimum pH for the reverse reaction, the oxidation of phenylethanol, was measured in an analogous manner. (±)-Phenylethanol (22 mM) was dissolved in aliquots of a 0.1M buffer and the pH was adjusted to a range from 4.0 to 10.0.
A third mixture containing 22 mM (±)-phenylethanol was employed for comparison. Enzyme activity was measured by photometry at 340 nm at 30° C.
Where [4] appears, read: pH 7; read-out: Activity remaining.
Setting [5] is: NADPH-dependent reductions, […].
Setting [6] is: NADPH-dependent reductions, pH 7.0, 0.2 mM NADPH, partially purified enzyme.
The mark [7] stands for this setting: pH 7, read-out: Activity remaining.
Where [8] appears, read: addition at final concentration 1 mM; 5.5 mM acetophenone, 0.2 mM NADPH, pH 7.0; partially purified enzyme.

Entries after “also recorded” stand apart in the source; their conditions may differ. Read-outs that look alike come from different tables or passages of the source.

Regarding `O[C@H](CS)[C@H](O)CS` (racemic) [Dithiothreitol], in assay [1] (setting [4]), the remaining activity (commonly the signal under treatment as a percentage of the control signal) at 1000 µM was 95%.

For the compound `c1cnc2c(c1)ccc1cccnc12` [1,10-Phenanthroline], the “Effect on enzyme activity (in words)” value in assay [1] is “virtually no inhibition”. Besides, the remaining activity at 1000 µM in assay [1] (setting [4]) came out at 99%.

Take `CC(=O)C(=O)c1ccccc1` [1-Phenyl-1,2-propanedione]: the Vmax in assay [2] (setting [5]) was 70%. Further, the “Reduction by the enzyme (in words)” value in assay [2] (in the presence of NADPH) is on record as “capable of catalyzing the reduction; also recorded: capable of reducing”.

On to `c1ccc(-c2ccccn2)nc1` [2,2'-Dipyridine], for which, in assay [1], the “Effect on enzyme activity (in words)” value is on record as “virtually no inhibition”. In assay [1] (setting [4]), the remaining activity at 1000 µM was 106%.

As for `CC(=O)c1ccc(Br)cc1` [4-Bromoacetophenone], the Vmax in assay [2] (setting [5]) is on record as 101%. For the same compound, the “Reduction by the enzyme (in words)” value in assay [2] (in the presence of NADPH, listed as p-bromoacetophenone) is “capable of catalyzing the reduction; also recorded: capable of reducing”.

Turning to `CC(=O)c1ccc(Cl)cc1` [4-Chloroacetophenone], the Vmax in assay [2] (setting [5]) is reported as 93%. The “Reduction by the enzyme (in words)” value in assay [2] (in the presence of NADPH, listed as p-chloroacetophenone) was “capable of catalyzing the reduction; also recorded: capable of reducing”.

As to `CC(=O)CCc1ccccc1` [4-Phenyl-2-butanone], the Vmax in assay [2] (setting [6]) stood at 90%. In addition, in assay [2] (in the presence of NADPH), the “Reduction by the enzyme (in words)” value is recorded as “capable of catalyzing the reduction; also recorded: capable of reducing”.

For the compound `CC(C)=O` [Acetone], the Vmax in assay [2] (setting [5]) turned out to be 96%. The “Reduction by the enzyme (in words)” value in assay [2] (in the presence of NADPH) was “capable of catalyzing the reduction; also recorded: capable of reducing”.

As to `CC(=O)c1ccccc1` [Acetophenone], in assay [2] (setting [6]), the Vmax worked out at 100%. Moreover, in assay [2] (acetophenone conversion, 0.2 mM NADPH, pH 7.0, 30° C.), the “Substrate concentration at maximum enzyme activity” value is 5.3 mM. In assay [2] (at 5.3 mM acetophenone, 0.2 mM NADPH), this compound returned a Maximum activity of 18.6 U/ml. For the same compound, in assay [2] (in the presence of NADPH), the “Reduction by the enzyme (in words)” value is “capable of catalyzing the reduction; also recorded: capable of reducing”. Besides, in assay [2] (up to an acetophenone concentration of 10.6 mM), the Excess substrate inhibition result was “no excess substrate inhibition”.

As for `O=Cc1ccccc1` [Benzaldehyde], the Vmax in assay [2] (setting [5]) is listed as 10%.

Take `O=C(O)CN(CCN(CC(=O)O)CC(=O)O)CC(=O)O` [EDTA]: the “Effect on enzyme activity (in words)” value in assay [1] is reported as “completely inhibited; also recorded: rapidly inactivated; also recorded: rapid inactivation”. Moreover, the remaining activity at 1000 µM in assay [1] (setting [7]) was determined as 0%.

As for `CCCCCC(=O)CC` [Ethyl pentyl ketone], the Vmax in assay [2] (setting [6]) was found to be 66%. Besides, the “Reduction by the enzyme (in words)” value in assay [2] (in the presence of NADPH) is “capable of catalyzing the reduction; also recorded: capable of reducing”.

As to `N[C@@H](CCC(=O)N[C@@H](CS)C(=O)NCC(=O)O)C(=O)O` [Glutathione], the remaining activity at 1000 µM in assay [1] (setting [7]) turned out to be 99%.

As for `NC(=O)CI` [Iodoacetamide], the “Effect on enzyme activity (in words)” value in assay [1] is listed as “relatively weak inhibition”. In addition, the remaining activity at 1000 µM in assay [1] (setting [4]) turned out to be 90%.

For the compound `CC(C)O` [Isopropanol], the Vmax in assay [3] was determined as 18%.

`CC(=O)C=C(C)C` [Mesityl oxide, 4-methyl-3-pentene-2-one]: the Vmax in assay [2] (setting [5]) is listed as 12%.

Turning to `CC(=O)c1ccc2ccccc2c1` [Methyl 2-naphthyl ketone], the Vmax in assay [2] (setting [6]) is given as 11%.

Take `CCCCCCC(C)=O` [Methyl hexyl ketone]: the Vmax in assay [2] (setting [6]) is on record as 91%. Moreover, the “Reduction by the enzyme (in words)” value in assay [2] (in the presence of NADPH) is “capable of catalyzing the reduction; also recorded: capable of reducing”.

In the case of `[Cl-].[Cl-].[Mg+2]` [MgCl2], the Activity remaining in assay [1] (setting [8]) is 132%.

In the case of `C[C@H](O)c1ccccc1` [Mixture II, S(-)-phenylethanol], in assay [3], the “Enzyme activity (oxidation)” value worked out at 0 U/ml and the “Stereospecificity / effect on the enzyme (in words)” value is reported as “inhibits the enzyme”.

In the case of `[Cl][Mn][Cl]` [MnCl2], the Activity remaining in assay [1] (setting [8]) was found to be 114%.

`CCN1C(=O)C=CC1=O` [N-Ethylmaleimide]: in assay [1], the “Effect on enzyme activity (in words)” value was “relatively weak inhibition”. In assay [1] (setting [4]), the remaining activity at 1000 µM turned out to be 81%.

Regarding `NC(=O)C1=CN([C@@H]2O[C@H](COP(=O)(O)OP(=O)(O)OC[C@H]3O[C@@H](n4cnc5c(N)ncnc54)[C@H](OP(=O)(O)O)[C@@H]3O)[C@@H](O)[C@H]2O)C=CC1` [NADPH], the “NADPH concentration at maximum enzyme activity” value in assay [2] (5.3 mM acetophenone, pH 7.0, 30° C.) was determined as 190 µM. Besides, the Vmax in assay [2] (setting [6]) came to 100%. Further, in assay [2] (at 190 μM NADPH, 5.3 mM acetophenone), the Maximum enzyme activity was 16.9 U/ml.

`NC(=O)c1ccc[n+]([C@@H]2O[C@H](COP(=O)(O)OP(=O)(O)OC[C@H]3O[C@@H](n4cnc5c(N)ncnc54)[C@H](OP(=O)(O)O)[C@@H]3O)[C@@H](O)[C@H]2O)c1` [NADP^+]: the Vmax in assay [3] was determined as 17%.

As to `O=S(=O)(F)Cc1ccccc1` [Phenylmethanesulfonyl fluoride], the Activity remaining in assay [1] (setting [8]) came out at 94%.

For the compound `CC(=O)C(C)(C)C` [Pinacolone], the “Reduction by the enzyme (in words)” value in assay [2] is “capable of catalyzing the reduction; also recorded: capable of reducing”. In addition, the Vmax in assay [2] (pH 7) is reported as 53%.

As to `CCC(=O)c1ccccc1` [Propiophenone], the Vmax in assay [2] (setting [5]) is recorded as 43%. Moreover, in assay [2] (in the presence of NADPH), the “Reduction by the enzyme (in words)” value is listed as “capable of catalyzing the reduction; also recorded: capable of reducing”.

With `C[C@@H](O)c1ccccc1` [R(+)-Phenylethanol], in assay [3], the “Enzyme activity (oxidation)” value is 3.5 U/ml, the Vmax stood at 11% and the “Stereospecificity / effect on the enzyme (in words)” value is listed as “highly specific”.

`[Cl-].[Cl-].[Zn+2]` [ZnCl2]: the Activity remaining in assay [1] (setting [8]) is listed as 114%.

With `O=C(O)c1cc[c]([Hg][OH])cc1` [p-Hydroxymercurybenzoate], in assay [1], the “Effect on enzyme activity (in words)” value is listed as “relatively weak inhibition”. Also, in assay [1] (addition at final concentration 0.1 mM; 5.5 mM acetophenone, 0.2 mM NADPH, pH 7.0; partially purified enzyme), the Activity remaining is listed as 92%.

On to (±)-Methylcyclohexanone, for which, in assay [2] (setting [6]), the Michaelis-Menten constant (Km) (as a rule, the concentration of substrate that gives half-maximal velocity) was found to be 70 mM and the Vmax is reported as 109%. For the same compound, the “Reduction by the enzyme (in words)” value in assay [2] (in the presence of NADPH) is on record as “capable of catalyzing the reduction; also recorded: capable of reducing”.

Consider Triton X-100, for which the Activity remaining in assay [1] (setting [8]) was 94%.

The record behind these values is US5200335A (Forschungszentrum Juelich GmbH, priority 1990, dated 1993).
